In patent US8772343B2, “Chemical compounds” (Pfizer Limited, priority 2010, dated 2014) one finds IC50 data, which are given here for 30 molecules.

SMILES strings stand for the structures. Where a name gives a salt, the structure may show the parent alone.

T1 sequence (Q15858 whole entry): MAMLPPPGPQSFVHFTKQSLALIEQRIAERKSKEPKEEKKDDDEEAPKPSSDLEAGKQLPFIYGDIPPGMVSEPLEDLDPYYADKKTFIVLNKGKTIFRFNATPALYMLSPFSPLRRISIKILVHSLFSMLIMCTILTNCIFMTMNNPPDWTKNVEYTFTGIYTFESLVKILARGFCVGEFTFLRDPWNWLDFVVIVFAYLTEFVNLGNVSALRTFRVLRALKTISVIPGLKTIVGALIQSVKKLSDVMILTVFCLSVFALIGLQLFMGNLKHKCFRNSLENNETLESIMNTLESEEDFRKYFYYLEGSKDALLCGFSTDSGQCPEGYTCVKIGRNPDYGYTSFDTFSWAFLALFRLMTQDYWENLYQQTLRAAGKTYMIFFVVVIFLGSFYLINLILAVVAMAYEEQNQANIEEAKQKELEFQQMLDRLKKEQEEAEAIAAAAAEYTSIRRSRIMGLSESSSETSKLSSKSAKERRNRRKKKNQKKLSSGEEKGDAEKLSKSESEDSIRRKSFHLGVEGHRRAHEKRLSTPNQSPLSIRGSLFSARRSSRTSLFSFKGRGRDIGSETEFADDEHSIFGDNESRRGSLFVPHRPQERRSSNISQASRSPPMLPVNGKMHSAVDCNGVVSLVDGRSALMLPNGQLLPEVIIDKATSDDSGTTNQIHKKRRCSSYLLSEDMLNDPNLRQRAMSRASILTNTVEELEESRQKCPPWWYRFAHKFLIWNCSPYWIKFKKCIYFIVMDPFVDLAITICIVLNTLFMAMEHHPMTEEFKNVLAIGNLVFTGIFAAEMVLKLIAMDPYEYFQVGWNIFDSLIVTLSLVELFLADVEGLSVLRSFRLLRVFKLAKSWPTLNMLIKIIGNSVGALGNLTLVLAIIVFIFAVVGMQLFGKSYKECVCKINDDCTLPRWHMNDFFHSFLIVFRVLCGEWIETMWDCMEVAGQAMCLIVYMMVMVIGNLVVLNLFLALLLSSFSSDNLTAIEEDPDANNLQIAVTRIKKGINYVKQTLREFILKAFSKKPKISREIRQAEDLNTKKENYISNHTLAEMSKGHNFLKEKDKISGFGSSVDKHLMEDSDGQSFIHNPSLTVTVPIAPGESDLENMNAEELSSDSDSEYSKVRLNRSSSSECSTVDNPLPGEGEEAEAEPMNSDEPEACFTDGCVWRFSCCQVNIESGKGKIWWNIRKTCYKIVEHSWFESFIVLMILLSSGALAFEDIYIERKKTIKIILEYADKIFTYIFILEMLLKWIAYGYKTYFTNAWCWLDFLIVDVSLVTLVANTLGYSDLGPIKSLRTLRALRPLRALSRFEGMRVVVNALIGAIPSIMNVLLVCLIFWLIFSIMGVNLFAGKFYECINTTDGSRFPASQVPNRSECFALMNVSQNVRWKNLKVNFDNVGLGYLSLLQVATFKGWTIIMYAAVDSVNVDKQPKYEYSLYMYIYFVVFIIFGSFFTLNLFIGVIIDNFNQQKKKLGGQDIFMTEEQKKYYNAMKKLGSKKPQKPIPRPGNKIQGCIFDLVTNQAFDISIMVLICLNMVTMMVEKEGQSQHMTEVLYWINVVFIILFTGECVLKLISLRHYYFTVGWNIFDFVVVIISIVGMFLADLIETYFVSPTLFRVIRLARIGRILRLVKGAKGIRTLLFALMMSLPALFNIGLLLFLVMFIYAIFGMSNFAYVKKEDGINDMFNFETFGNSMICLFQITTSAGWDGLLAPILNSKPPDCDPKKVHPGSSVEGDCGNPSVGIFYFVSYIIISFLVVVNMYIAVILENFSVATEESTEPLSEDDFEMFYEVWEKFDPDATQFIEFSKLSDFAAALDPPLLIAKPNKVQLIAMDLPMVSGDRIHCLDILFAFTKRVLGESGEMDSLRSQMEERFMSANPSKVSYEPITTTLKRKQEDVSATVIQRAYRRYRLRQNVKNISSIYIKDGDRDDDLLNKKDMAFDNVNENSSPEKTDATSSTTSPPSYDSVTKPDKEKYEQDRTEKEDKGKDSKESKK

The test addresses T1, Nav1.7 (or SCN9A) channel (Homo sapiens, UniProt Q15858).
T1 construct: expressed in transfected cells
As to the kind of experiment: Nav1.7 PatchXpress automated whole-cell electrophysiology in HEK cells expressing hSCN9A. The test is classed as cell-based. The settings on record: estimated IC50 from single point data, PatchXpress assay, held at V1/2 of inactivation, read-out: Nav1.7 EIC50. Here is the method:
The ability of the compounds of formula (I) to block the Nav1.7 (or SCN9A) channel were measured using the assay described below.
Human Embryonic Kidney (HEK) cells were transfected with an hSCN9A construct using lipofectamine reagent (Invitrogen), using standard techniques. Cells stably expressing the hSCN9A constructs were identified by their resistance to G-418 (400 μg/ml). Clones were screened for expression using the whole-cell voltage-clamp technique.
HEK cells stably transfected with hSCN9A were maintained in DMEM medium supplemented with 10% heat-inactivated fetal bovine serum and 400 μg/ml G-418 in an incubator at 37° C. with a humidified atmosphere of 10% CO2. For HTS, cells were harvested from flasks by trypsinization and replated in an appropriate multi-well plate (typically 96 or 384 wells/plate) such that confluence would be achieved within 24 hours of plating. For electrophysiological studies, cells were removed from the culture flask by brief trypsinization and re-plated at low density onto glass cover slips. Cells were typically used for electrophysiological experiments within 24 to 72 hours after plating.
Cover slips containing HEK cells expressing hSCN9A were placed in a bath on the stage of an inverted microscope and perfused (approximately 1 ml/minutes) with extracellular solution of the following composition: 138 mM NaCl, 2 mM CaCl2, 5.4 mM KCl, 1 mM MgCl2, 10 mM glucose, and 10 mM HEPES, pH 7.4, with NaOH. […] The osmolarity of the extracellular and intracellular solutions was 300 mOsm/kg and 295 mOsm/kg, respectively. All recordings were made at room temperature (22-24° C.) using AXOPATCH 200B amplifiers and PCLAMP software (Axon Instruments, Burlingame, Calif.).
hSCN9A currents in HEK cells were measured using the whole-cell configuration of the patch-clamp technique (Hamill et al., 1981). Uncompensated series resistance was typically 2 to 5 mega ohms and >85% series resistance compensation was routinely achieved. As a result, voltage errors were negligible and no correction was applied. Current records were acquired at 20 to 50 KHz and filtered at 5 to 10 KHz.
HEK cells stably transfected with hSCN9A were viewed under Hoffman contrast optics and placed in front of an array of flow pipes emitting either control or compound-containing extracellular solutions. All compounds were dissolved in dimethyl sulfoxide to make 10 mM stock solutions, which were then diluted into extracellular solution to attain the final concentrations desired. […] The voltage-dependence of inactivation was determined by applying a series of depolarizing prepulses (8 sec long in 10 mV increments) from a negative holding potential. The voltage was then immediately stepped to 0 mV to assess the magnitude of the sodium current. Currents elicited at 0 mV were plotted as a function of prepulse potential to allow estimation of the voltage at which 50% of the channels were inactivated (midpoint of inactivation or V1/2). Compounds were tested for their ability to inhibit hSCN9A sodium channels by activating the channel with a 20 msec voltage step to 0 mV following an 8 second conditioning prepulse to the empirically determined V1/2. Compound effect (% inhibition) was determined by difference in current amplitude before and after application of test compounds. For ease of comparison, “estimated IC-50” (EIC50) values were calculated from single point electrophysiology data by the following equation, (tested concentration, uM)×(100-% inhibition/% inhibition). Inhibition values<20% and >80% were excluded from the calculation.
Electrophysiological assays were conducted with PatchXpress 7000 hardware and associated software (Molecular Devices Corp). All assay buffers and solutions were identical to those used in conventional whole-cell voltage clamp experiments described above. hSCN9A cells were grown as above to 50%-80% confluency and harvested by trypsinization. […]
In the case of `CS(=O)(=O)NC(=O)c1ccc(Oc2ccc(Cl)cc2)c(-c2ccccc2OC(F)(F)F)c1` [Example 24, 6-(4-chlorophenoxy)-N-(methylsulfonyl)-2′-(trifluoromethoxy)biphenyl-3-carboxamide], the IC50 was 500 nM. With `COc1ncccc1-c1cc(C(=O)NS(C)(=O)=O)ccc1Oc1cnc(C2CC2)c(Cl)c1` [Example 94, 4-(5-chloro-6-cyclopropylpyridin-3-yloxy)-3-(2-methoxypyridin-3-yl)-N-(methylsulfonyl)benzamide], the IC50 is 400 nM. In the case of `COc1cc(Cl)cc(Oc2ccc(C(=O)NS(C)(=O)=O)cc2-c2cccnc2OC)c1` [Example 57, 4-(3-chloro-5-methoxyphenoxy)-3-(2-methoxypyridin-3-yl)-N-(methylsulfonyl)benzamide], the IC50 is 660 nM. As to `CCCn1cc(-c2cc(C(=O)NS(C)(=O)=O)ccc2Oc2ccc(Cl)cc2)cn1` [Example 41, 4-(4-chlorophenoxy)-N-(methylsulfonyl)-3-(1-propyl-1H-pyrazol-4-yl)benzamide], the IC50 is more than 3000 nM.

For `CS(=O)(=O)NC(=O)c1ccc(Oc2ccc(Cl)cc2)c(-c2cncnc2)c1` [Example 23, 4-(4-chlorophenoxy)-N-(methylsulfonyl)-3-pyrimidin-5-ylbenzamide], the IC50 was 2800 nM. With `CS(=O)(=O)NC(=O)c1ccc(Oc2ccc(Cl)cc2)c(-c2ccc(C#N)nc2)c1` [Example 39, 4-(4-chlorophenoxy)-3-(6-cyanopyridin-3-yl)-N-(methylsulfonyl)benzamide], the IC50 is 1100 nM. Under `CCOc1ccccc1-c1cc(C(=O)NS(C)(=O)=O)ccc1Oc1ccc(Cl)cc1` [Example 32, 6-(4-chlorophenoxy)-2′-ethoxy-N-(methylsulfonyl)-biphenyl-3-carboxamide] stands 120 nM; under `COc1ccc(Oc2ccc(C(=O)NS(C)(=O)=O)cc2-c2cccnc2OC)cc1Cl` [Example 75, 4-(3-chloro-4-methoxyphenoxy)-3-(2-methoxypyridin-3-yl)-N-(methylsulfonyl)benzamide], 310 nM.

Turning to `COc1ccc(-c2cc(C(=O)NS(C)(=O)=O)ccc2Oc2ccc(Cl)cc2)cn1` [Example 16, 4-(4-chlorophenoxy)-3-(6-methoxypyridin-3-yl)-N-(methylsulfonyl)benzamide], the IC50 was 910 nM.

On to `COc1ncccc1-c1cc(C(=O)NS(C)(=O)=O)ccc1Oc1ccc(F)c(C(F)(F)F)c1` [Example 78, 4-[4-fluoro-3-(trifluoromethyl)phenoxy]-3-(2-methoxypyridin-3-yl)-N-(methylsulfonyl)benzamide], for which the IC50 is 150 nM.

For `COc1ncccc1-c1cc(C(=O)NS(C)(=O)=O)ccc1Oc1ccc(C#N)c(Cl)c1` [Example 88, 4-(3-chloro-4-cyanophenoxy)-3-(2-methoxypyridin-3-yl)-N-(methylsulfonyl)benzamide], the IC50 is 2500 nM. For `COc1ccc(Oc2ccc(C(=O)NS(C)(=O)=O)cc2-c2cccnc2OC)cn1` [Example 70, 3-(2-methoxypyridin-3-yl)-4-[(6-methoxypyridin-3-yl)oxy]-N-(methylsulfonyl)benzamide] the value was 2200 nM; for `COc1ncccc1-c1cc(C(=O)NS(C)(=O)=O)ccc1Oc1ccc(C#N)cc1` [Example 56, 4-(4-cyanophenoxy)-3-(2-methoxypyridin-3-yl)-N-(methylsulfonyl)benzamide], 2400 nM; for `COc1ncccc1-c1cc(C(=O)NS(C)(=O)=O)ccc1Oc1ccccc1C(F)(F)F` [Example 82, 3-(2-methoxypyridin-3-yl)-N-(methylsulfonyl)-4-[2-(trifluoromethyl)phenoxy]benzamide], more than 1000 nM. In the case of `COc1ncccc1-c1cc(C(=O)NS(=O)(=O)C2CC2)ccc1Oc1ccccc1` [Example 6, N-(cyclopropylsulfonyl)-3-(2-methoxypyridin-3-yl)-4-phenoxybenzamide], the IC50 is 1300 nM.

On to `COc1ncccc1-c1cc(C(=O)NS(C)(=O)=O)ccc1Oc1ccc(Cl)cn1` [Example 76, 4-[(5-chloropyridin-2-yl)oxy]-3-(2-methoxypyridin-3-yl)-N-(methylsulfonyl)benzamide], for which the IC50 was more than 1000 nM. For `COc1ncccc1-c1cc(C(=O)NS(C)(=O)=O)ccc1Oc1ccc(OCC(C)C)nc1` [Example 2, 4-[(6-isobutoxypyridin-3-yl)oxy]-3-(2-methoxypyridin-3-yl)-N-(methylsulfonyl)benzamide diethylamine salt] the value was 220 nM. Under `COc1ncccc1-c1cc(C(=O)NS(C)(=O)=O)ccc1Oc1ccccc1` [Example 5, 3-(2-methoxypyridin-3-yl)-N-(methylsulfonyl)-4-phenoxybenzamide] stands 900 nM; under `CCc1ccc(Oc2ccc(C(=O)NS(C)(=O)=O)cc2-c2cccnc2OC)cn1` [Example 63, 4-[(6-ethylpyridin-3-yl)oxy]-3-(2-methoxypyridin-3-yl)-N-(methylsulfonyl)benzamide], 3900 nM; under `COc1ncccc1-c1cc(C(=O)NS(C)(=O)=O)ccc1Oc1ccc(F)c(F)c1` [Example 55, 4-(3,4-difluorophenoxy)-3-(2-methoxypyridin-3-yl)-N-(methylsulfonyl)benzamide], 440 nM. Under `COc1ncccc1-c1cc(C(=O)NS(C)(=O)=O)ccc1Oc1cccc(C(F)(F)F)c1F` [Example 81, 4-[2-fluoro-3-(trifluoromethyl)phenoxy]-3-(2-methoxypyridin-3-yl)-N-(methylsulfonyl)benzamide] stands 1100 nM; under `COc1ncccc1-c1cc(C(=O)NS(C)(=O)=O)ccc1Oc1cncc(Cl)c1` [Example 90, 4-[(5-chloropyridin-3-yl)oxy]-3-(2-methoxypyridin-3-yl)-N-(methylsulfonyl)benzamide], 1400 nM; under `Cn1cc(-c2cc(C(=O)NS(C)(=O)=O)ccc2Oc2ccc(Cl)cc2)cn1` [Example 48, 4-(4-chlorophenoxy)-3-(1-methyl-1H-pyrazol-4-yl)-N-(methylsulfonyl)benzamide], 9800 nM. For `COc1ncccc1-c1cc(C(=O)NS(C)(=O)=O)ccc1Oc1cc(F)cc(C(F)(F)F)c1` [Example 72, 4-[3-fluoro-5-(trifluoromethyl)phenoxy]-3-(2-methoxypyridin-3-yl)-N-(methylsulfonyl)benzamide], the IC50 is 100 nM.

Turning to `CS(=O)(=O)NC(=O)c1ccc(Oc2ccc(Cl)cc2)c(-c2ccccc2C(F)(F)F)c1` [Example 35, 6-(4-chlorophenoxy)-N-(methylsulfonyl)-2′-(trifluoromethyl)biphenyl-3-carboxamide], the IC50 was 8000 nM. For `CCOc1ccc(-c2cc(C(=O)NS(C)(=O)=O)ccc2Oc2ccc(Cl)cc2)cc1` [Example 12, 6-(4-chlorophenoxy)-4′-ethoxy-N-(methylsulfonyl)-biphenyl-3-carboxamide] the value was 3500 nM; for `Cc1ccc(-c2cc(C(=O)NS(C)(=O)=O)ccc2Oc2ccc(Cl)cc2)cn1` [Example 38, 4-(4-chlorophenoxy)-3-(6-methylpyridin-3-yl)-N-(methylsulfonyl)benzamide], more than 3000 nM; for `COc1ncccc1-c1cc(C(=O)NS(C)(=O)=O)ccc1Oc1cc(F)cc(F)c1` [Example 69, 4-(3,5-difluorophenoxy)-3-(2-methoxypyridin-3-yl)-N-(methylsulfonyl)benzamide], 440 nM. Under `COc1cccc(-c2cc(C(=O)NS(C)(=O)=O)ccc2Oc2ccc(Cl)cc2)c1` [Example 29, 6-(4-chlorophenoxy)-3′-methoxy-N-(methylsulfonyl)-biphenyl-3-carboxamide] stands 570 nM; under `COc1cccc(Oc2ccc(C(=O)NS(C)(=O)=O)cc2-c2cccnc2OC)c1` [Example 85, 4-(3-methoxyphenoxy)-3-(2-methoxypyridin-3-yl)-N-(methylsulfonyl)benzamide], 640 nM.
